20 molecules from article PMC6328288 (Journal of Medicinal Chemistry, 2018) can be followed below.

Assay [1] concerns the target T1, human CCR2 (Homo sapiens, UniProt P41597).
T1 sequence (P41597 1-360 isoform P41597-2): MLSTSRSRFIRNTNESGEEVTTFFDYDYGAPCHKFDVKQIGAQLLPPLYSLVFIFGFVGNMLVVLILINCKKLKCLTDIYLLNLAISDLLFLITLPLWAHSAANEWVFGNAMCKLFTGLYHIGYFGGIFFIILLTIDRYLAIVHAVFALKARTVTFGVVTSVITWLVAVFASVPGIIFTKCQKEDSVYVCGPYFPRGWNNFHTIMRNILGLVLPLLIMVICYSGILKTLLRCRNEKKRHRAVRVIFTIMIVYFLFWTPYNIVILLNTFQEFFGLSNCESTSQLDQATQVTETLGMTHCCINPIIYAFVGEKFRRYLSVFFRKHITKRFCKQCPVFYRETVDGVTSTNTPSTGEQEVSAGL
The experiment in a line: [35S]GTPγS binding assay on U2OS-CCR2 membranes. Format: biochemical. Particulars: for Hill slope, CCR2: CCL2-induced, 20 nM CCL2. For orientation: Binding of GTPγS marks nucleotide exchange on a G protein.

Assay [2] addresses T1, human CCR2. The experiment in a line: [3H]-CCR2-RA-[R] displacement binding assay on U2OS-CCR2 membranes. Particulars: for displacement at 1 μM (%) / pKi ± SEM: CCR2; for displacement at 1 μM (%): [3H]-CCR2-RA-[R] displacement by 1 μM compound, mean of two experiments; for pKi ± SEM: [3H]-CCR2-RA-[R] binding, U2OS membranes, 25 °C.
Assay [3] concerns the target T2, human CCR1 (Homo sapiens, UniProt P32246).
T2 sequence (P32246 1-355): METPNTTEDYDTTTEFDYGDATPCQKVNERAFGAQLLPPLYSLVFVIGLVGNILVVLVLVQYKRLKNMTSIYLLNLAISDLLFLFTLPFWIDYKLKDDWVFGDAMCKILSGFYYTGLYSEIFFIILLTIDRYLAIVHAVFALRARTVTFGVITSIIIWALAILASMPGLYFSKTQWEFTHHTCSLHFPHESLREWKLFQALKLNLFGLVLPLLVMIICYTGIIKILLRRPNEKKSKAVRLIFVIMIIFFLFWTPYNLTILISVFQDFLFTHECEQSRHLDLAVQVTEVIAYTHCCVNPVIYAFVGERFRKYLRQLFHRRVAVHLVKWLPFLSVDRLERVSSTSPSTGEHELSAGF
The experiment in a line: [3H]-CCR2-RA-[R] displacement binding assay on U2OS-CCR1 membranes. Conditions: for displacement of [3H]-CCR2-RA-[R] from CCR1 (in words): concentration-dependent.

The target of assay [4] is T2, human CCR1. Put plainly: [35S]GTPγS binding assay on U2OS-CCR1 membranes. Format: biochemical. Conditions: for Hill slope, CCR1: CCL3-induced, 8 nM CCL3.
The target in assay [5] is T2, human CCR1. Put plainly: Inhibition of basal [35S]GTPγS binding in absence of CCL3 in U2OS-CCR1. The assay is classed as biochemical. Conditions: for fold difference between functional and binding assays: CCR1, [35S]GTPγS potency (absence or presence of CCL3) versus binding affinity; for fold higher potency as inverse agonist than as antagonist: CCR1, absence versus presence of CCL3.

Where [6] appears, read: CCR1, [3H]-CCR2-RA-[R] binding, U2OS membranes, 25 °C.

On to “CCL2: chemokine ligand activating CCR2, purchased from PeproTech”, for which, in assay [1] (U2OS-CCR2), the “pEC50, stimulation of [35S]GTPγS binding” value is given as 8.3 ± 0.09. Moreover, the EC50 in assay [1] (read-out: potency, stimulation of [35S]GTPγS binding, U2OS-CCR2) amounted to 5 nM.

Consider `COc1ccc(C2C(C(C)=O)=C(O)C(=O)N2c2ccc(C)cc2)cc1` (stereo not shown) [Compound 11, 4-Acetyl-3-hydroxy-5-(4-methoxyphenyl)-1-(4-methylphenyl)-1,5-dihydro-2H-pyrrol-2-one], for which the “displacement at 1 μM (%)” value in assay [2] is listed as 5% (5, 5). Same read-out and setting: in the case of `CC(=O)C1=C(O)C(=O)N(c2ccc(C)cc2)C1c1ccc(C)cc1` (stereo not shown) [Compound 10, 4-Acetyl-3-hydroxy-5-(4-methylphenyl)-1-(4-methylphenyl)-1,5-dihydro-2H-pyrrol-2-one] it was 36% (42, 31); in that of `CCOC(=O)C1=C(O)C(=O)N(c2ccc(C)cc2)C1C1CCCCC1` (stereo not shown) [Compound 24, Ethyl 2-Cyclohexyl-4-hydroxy-5-oxo-1-(4-methylphenyl)-2,5-dihydro-1H-pyrrole-3-carboxylate], 31% (36, 26).

Broadly, the Ki is a measure of affinity in units of concentration, obtained from inhibition or displacement. A low value points to a stronger hold on the target. Consider `CC(=O)C1=C(O)C(=O)N(c2ccc(Cl)cc2)C1C1CCCCC1` (stereo not shown) [Compound 30, 4-Acetyl-1-(4-chlorophenyl)-5-cyclohexyl-3-hydroxy-1,5-dihydro-2H-pyrrol-2-one], for which, in assay [2], the inhibition constant Ki is roughly 20 nM and the “pKi ± SEM” value worked out at 7.73 ± 0.08. With `CC(=O)C1=C(O)C(=O)N(c2ccc(C)cc2)C1c1cccc(C)c1` (stereo not shown) [Compound 14, 4-Acetyl-3-hydroxy-5-(3-methylphenyl)-1-(4-methylphenyl)-1,5-dihydro-2H-pyrrol-2-one], the “displacement at 1 μM (%)” value in assay [2] is 11% (14, 8). Turning to `C[C@@H]1CN(Cc2ccc(F)cc2)CCN1C(=O)COc1ccc(Cl)cc1NC(N)=O` [BX471], in assay [3] (10 μM BX471, 6 nM radioligand, U2OS-CCR1), the “[3H]-CCR2-RA-[R] specific binding in presence of compound (absence = 100%)” value is 116 ± 2%. In addition, the “[3H]-CCR2-RA-[R] binding enhanced up to” value in assay [3] (U2OS-CCR1, increasing concentrations) is listed as “up to 120%”. The “displacement of [3H]-CCR2-RA-[R] from CCR1 (in words)” value in assay [3] (U2OS-CCR1) is listed as “not able to displace”. Regarding `O=C(C1=C(O)C(=O)N(c2ccc(Br)cc2F)C1C1CCCCC1)C1CC1` (stereo not shown) [Compound 43, 1-(4-Bromo-2-fluorophenyl)-5-cyclohexyl-4-(cyclopropanecarbonyl)-3-hydroxy-1,5-dihydro-2H-pyrrol-2-one], the “Hill slope, CCR1” value in assay [4] is recorded as “–0.73 ± 0.02”. The “Hill slope, CCR2” value in assay [1] was “–0.80 ± 0.13”. The “fold difference between functional and binding assays” value in assay [5] is given as “more than 130 fold”. Besides, the “pKi ± SEM” value in assay [2] is 7.82 ± 0.04. Regarding `COC(=O)c1c(-c2ccno2)[nH]c(=S)n1CCCc1ccc(F)c(F)c1` [JNJ-27141491, (S)-3-[3,4-difluorophenyl)-propyl]-5-isoxazol-5-yl-2-thioxo-2,3-dihydro-1H-imidazole-4-carboxyl acid methyl ester], in assay [3] (setting [6]), the affinity, expressed as Ki, was 138 nM and the “pKi ± SEM” value stood at 6.9 ± 0.06. For the same molecule, in assay [3] (U2OS-CCR1), the “displacement of [3H]-CCR2-RA-[R] from CCR1 (in words)” value is “fully displaced”. Regarding `Cc1ccc(N2C(=O)C(O)=C(C(=O)C3CC3)C2C2CCCCC2)cc1` (stereo not shown) [Compound 22, 5-Cyclohexyl-4-(cyclopropanecarbonyl)-3-hydroxy-1-(4-methylphenyl)-1,5-dihydro-2H-pyrrol-2-one], the “selectivity for CCR1 over CCR2” value in assay [3] (from binding affinities) is reported as 8 fold. Turning to `CC(=O)C1=C(O)C(=O)N(c2ccc(Br)cc2F)C1C1CCCCC1` (stereo not shown) [Compound 39, 4-Acetyl-1-(4-bromo-2-fluorophenyl)-5-cyclohexyl-3-hydroxy-1,5-dihydro-2H-pyrrol-2-one], in assay [4], the “Hill slope, CCR1” value was “–0.62 ± 0.05”. In addition, the “Hill slope, CCR2” value in assay [1] is “–0.94 ± 0.18”. Moreover, in assay [5], the “fold higher potency as inverse agonist than as antagonist” value was 3 fold.

With `O=C(C1=C(O)C(=O)N(c2ccc(Br)cc2F)C1C1CCCCC1)c1ccccc1` (stereo not shown) [Compound 44, 4-Benzoyl-1-(4-bromo-2-fluorophenyl)-5-cyclohexyl-3-hydroxy-1,5-dihydro-2H-pyrrol-2-one], the “pKi ± SEM” value in assay [3] (setting [6]) is 7.56 ± 0.04. For the molecule `CC(=O)C1=C(O)C(=O)N(c2ccc(Br)cc2)C1C1CCCCC1` (stereo not shown) [Compound 31, 4-Acetyl-1-(4-bromophenyl)-5-cyclohexyl-3-hydroxy-1,5-dihydro-2H-pyrrol-2-one], in assay [2], the Ki is roughly 20 nM. As for `CC(=O)C1=C(O)C(=O)N(c2ccc(Br)cc2F)C1c1cccc(Br)c1` (stereo not shown) [Compound 46, 4-Acetyl-1-(4-bromo-2-fluorophenyl)-5-(3-bromophenyl)-3-hydroxy-1,5-dihydro-2H-pyrrol-2-one], the “pKi ± SEM” value in assay [3] (setting [6]) is 7.19 ± 0.02. In the case of `COc1cccc(C2C(C(C)=O)=C(O)C(=O)N2c2ccc(C)cc2)c1` (stereo not shown) [Compound 15, 4-Acetyl-3-hydroxy-5-(3-methoxyphenyl)-1-(4-methylphenyl)-1,5-dihydro-2H-pyrrol-2-one], the “displacement at 1 μM (%)” value in assay [2] is listed as 0% (3, −3). With “CCL3: chemokine ligand activating CCR1, purchased from PeproTech”, the “pEC50, stimulation of [35S]GTPγS binding” value in assay [4] (U2OS-CCR1) worked out at 8.9 ± 0.06. Also, the EC50 in assay [4] (read-out: potency, stimulation of [35S]GTPγS binding, U2OS-CCR1) stood at 1.3 nM. With `CCC(=O)C1=C(O)C(=O)N(c2ccc(C)cc2)C1C1CCCCC1` (stereo not shown) [Compound 18, 5-Cyclohexyl-3-hydroxy-4-propionyl-1-(4-methylphenyl)-1,5-dihydro-2H-pyrrol-2-one], the “pKi ± SEM” value in assay [3] (setting [6]) stood at 7.52 ± 0.01. Consider `CC(=O)C1=C(O)C(=O)N(c2ccc(C)c(C)c2)C1C1CCCCC1` (stereo not shown) [Compound 40, 4-Acetyl-5-cyclohexyl-1-(3,4-dimethylphenyl)-3-hydroxy-1,5-dihydro-2H-pyrrol-2-one], for which the “pKi ± SEM” value in assay [2] is reported as 7.75 ± 0.02; in assay [3] (setting [6]), 7.37 ± 0.03. `CC(=O)C1=C(O)C(=O)N(c2ccc(Cl)c(C)c2)C1C1CCCCC1` (stereo not shown) [Compound 41, 4-Acetyl-1-(4-chloro-3-methylphenyl)-5-cyclohexyl-3-hydroxy-1,5-dihydro-2H-pyrrol-2-one]: the “Hill slope, CCR1” value in assay [4] is reported as “–0.72 ± 0.08”. The “Hill slope, CCR2” value in assay [1] is listed as “–0.88 ± 0.13”. Moreover, the “fold higher potency as inverse agonist than as antagonist” value in assay [5] was roughly 10 fold. For the molecule `O=C(C1=C(O)C(=O)N(c2ccc(Br)cc2F)C1c1cccc(Br)c1)C1CC1` (stereo not shown) [Compound 45, 1-(4-Bromo-2-fluorophenyl)-5-(3-bromophenyl)-4-(cyclopropanecarbonyl)-3-hydroxy-1,5-dihydro-2H-pyrrol-2-one], in assay [4], the “Hill slope, CCR1” value is “–0.93 ± 0.01”. Besides, the “Hill slope, CCR2” value in assay [1] is “–1.20 ± 0.08”. Also, the “fold difference between functional and binding assays” value in assay [5] was “more than 130 fold”.
